Earlier results in patent publication US20140235496A1, “STIMULUS-ELICITED GENOMIC PROFILE MARKERS OF A NEURODEGENERATIVE CONDITION” (Blanchette Rockefeller Neurosciences Institute, priority 2011, published 2014).

Test system: PKC
Details: shown to be effective; see US 2010/0022645

For `CCC1CC1CC1CC1CC1CC1CC1CC1CC1CC1CC1CC1CCC(=O)O` (stereo not shown) [DHA-CP6], the effective concentration is listed as 10 nM.
